The term EC50 denotes the concentration needed to bring the measured effect to its halfway point. A low value points to greater potency.

The values below come from patent publication US8778926B2, “Compounds, pharmaceutical compositions and uses thereof” (Boehringer Ingelheim International GmbH, priority 2011, dated 2014).

The target in the experiment is T1, human GPR119 (Homo sapiens, UniProt Q8TDV5).
T1 construct: expression vector for human GPR119 cDNA (Acc. No. NP_848566); expressed in transfected cells
T1 sequence (Q8TDV5 1-335): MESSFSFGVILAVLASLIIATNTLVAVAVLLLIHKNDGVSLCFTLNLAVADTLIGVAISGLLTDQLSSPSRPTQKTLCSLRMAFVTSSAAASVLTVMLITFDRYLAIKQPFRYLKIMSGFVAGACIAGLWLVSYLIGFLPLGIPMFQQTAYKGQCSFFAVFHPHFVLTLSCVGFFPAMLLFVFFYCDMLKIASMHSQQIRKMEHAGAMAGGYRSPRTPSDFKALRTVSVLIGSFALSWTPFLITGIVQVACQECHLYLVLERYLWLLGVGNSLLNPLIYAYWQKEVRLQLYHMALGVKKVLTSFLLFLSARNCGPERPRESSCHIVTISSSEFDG
Kind of experiment: AlphaScreen cAMP assay, activation of GPR119 in Min-6/hGPR119 cells. The format is cell-based. To be noted: MIN6 cells stably transfected with human GPR119; intracellular cAMP; 45 minutes incubation at room temperature. As for the experimental part:
The compounds of formula I according to the invention modulate the activity of the G-protein-coupled receptor GPR119. The effect of the compounds on the activation of GPR119 and on the stimulation of intracellular cAMP concentration is determined using the AlphaScreen cAMP Assay Kit (Cat. No. #6760625R) made by PerkinElmer.
MIN6 cells [Miyazaki J et al. Endocrinology. 1990 July; 127(1):126-32] are stably transfected with an expression vector for human GPR119 cDNA (Acc. No. NP_848566). Min-6/hGPR119 cells are cultured in DMEM, 10% FBS, 500 μM β-mercaptoethanol, 0.3 mg/mL Geniticin, 2 mM GlutaMAX at 37° C. 5% CO2. For the assay, the cells are seeded in Optiplates (white, 384-well, 160 W— barcoded, TC, sterile with lid, Cat. No. #6007688 (Perkin Elmer); 10000 cells/well; 50 μl). The plates covered with lids are then incubated for 24 hours at 37° C./5% CO2. After the medium is aspirated from the wells completely, 10 μl of the test compound are added, the compounds are diluted using stimulating buffer (140 mM NaCl, 3.6 mM KCl, 0.5 mM NaH2PO4, 0.5 mM MgSO4, 1.5 mM CaCl2, 10 mM Hepes, 5 mM NaHCO3; pH 7.4. 0.5 mM IBMX and 0.1% BSA, the final DMSO concentration is 1%). After 45 minutes incubation at room temperature (approx. 20° C.), the cAMP concentrations are determined using the AlphaScreen cAMP Assay Kit (Cat. No. #6760625R from PerkinElmer).
A general note: Bead proximity is the source of the signal in Alpha formats.
For `CC1(C2CCN(c3nnc(C(F)(F)F)s3)CC2)Cc2cc(C3=CCN(S(C)(=O)=O)CC3)ncc2O1` (single isomer, unassigned) [Example 48, 5-(1-Methanesulfonyl-1,2,3,6-tetrahydro-pyridin-4-yl)-2-methyl-2-[1-(5-trifluoromethyl-[1,3,4]thiadiazol-2-yl)-piperidin-4-yl]-2,3-dihydro-furo[2,3-c]pyridine], the response was half-maximal at 12 nM (EC50). That is a double-digit nanomolar value.

Turning to `CCCc1nc(N2CCC([C@@H]3Cc4cc(C5=CCN(S(C)(=O)=O)CC5)ncc4O3)CC2)no1` (single isomer, unassigned) [Example 49], the midpoint of the response, the EC50, lay at 25 nM.

For `CC(C)(C)c1nc(N2CCC([C@H]3Cc4cc(C5=CCN(S(C)(=O)=O)CC5)ncc4O3)CC2)no1` (single isomer, unassigned) [Example 50], the EC50 was 5 nM.

On to `CC(C)(C)c1nc(N2CCC([C@@H]3Cc4cc(C5=CCN(S(C)(=O)=O)CC5)ncc4O3)CC2)no1` (single isomer, unassigned) [Example 51], for which a half-maximal response (EC50) required 7 nM. This EC50 and that of the compound before are within 1.5-fold of each other.

`CS(=O)(=O)N1CC=C(c2cc3c(cn2)O[C@H](C2CCN(c4ncc(C(F)(F)F)cn4)CC2)C3)CC1` (single isomer, unassigned) [Example 52]: it took 19 nM to reach a half-maximal effect (EC50).

`Cc1cnc(N2CCC([C@]3(C)Cc4cc(C5=CCN(S(C)(=O)=O)CC5)ncc4O3)CC2)cn1` (single isomer, unassigned) [Example 53] showed an EC50 of 20 nM.

In turn, `CC(C)c1noc(N2CCC([C@@H]3Cc4cc(C5=CCN(S(C)(=O)=O)CC5)ncc4O3)CC2)n1` (single isomer, unassigned) [Example 55] had an EC50 of 16 nM.

For the compound `CC1(c2nc(N3CCC([C@@H]4Cc5cc(C6=CCN(S(C)(=O)=O)CC6)ncc5O4)CC3)no2)CC1` (single isomer, unassigned) [Example 57], the EC50 amounted to 36 nM. Against the preceding compound, the EC50 is about 2.2-fold higher.

With `CS(=O)(=O)N1CC=C(c2cc3c(cn2)O[C@@H](C2CCN(c4ncc(C(F)(F)F)cn4)CC2)C3)CC1` (single isomer, unassigned) [Example 79], the EC50 was determined as 3 nM.

`CS(=O)(=O)N1CC=C(c2cc3c(cn2)O[C@@H](C2CCN(c4cnc(C(F)(F)F)cn4)CC2)C3)CC1` (single isomer, unassigned) [Example 80] had an EC50 of 5 nM. This EC50 is about 1.7-fold higher than that of the compound before.

For `CS(=O)(=O)N1CC=C(c2cc3c(cn2)O[C@@H](C2CCN(c4nnc(C(F)(F)F)s4)CC2)C3)CC1` (single isomer, unassigned) [Example 81], a half-maximal effect (EC50) was put at 10 nM.

On to `CS(=O)(=O)N1CC=C(c2cc3c(cn2)O[C@@H](C2CCN(c4ccc(C(F)(F)F)cn4)CC2)C3)CC1` (single isomer, unassigned) [Example 82], for which the EC50 turned out to be 3 nM.

With `CS(=O)(=O)N1CC=C(c2cc3c(cn2)O[C@@H](C2CCN(c4ncc(Cl)cn4)CC2)C3)CC1` (single isomer, unassigned) [Example 83], the EC50 turned out to be 3 nM.

`CS(=O)(=O)N1CC=C(c2cc3c(cn2)O[C@@H](C2CCN(c4ncc(C(F)(F)F)cc4F)CC2)C3)CC1` (single isomer, unassigned) [Example 84]: the EC50 came out at 2 nM. This EC50 lies about 1.5-fold lower than the previous one.

In turn, `CCc1cnc(N2CCC([C@H]3Cc4cc(-c5ccc(S(C)(=O)=O)cc5)ncc4O3)CC2)nc1` (single isomer, unassigned) [Example 85] displayed an EC50 of 7 nM.

In the case of `CS(=O)(=O)N1CC=C(c2cc3c(cn2)O[C@H](C2CCN(c4ncc(Cl)cn4)CC2)C3)CC1` (single isomer, unassigned) [Example 86], a half-maximal response (EC50) required 12 nM. This EC50 is about 1.7-fold higher than that of the compound before.

Consider `CS(=O)(=O)c1ccc(-c2cc3c(cn2)O[C@@H](C2CCN(c4ncc(Cl)cn4)CC2)C3)cc1` (single isomer, unassigned) [Example 87], for which the EC50 came to 13 nM. The EC50 values of the last two compounds are within 1.5-fold of each other.

The compound `C[C@]1(C2CCN(c3ncc(Cl)cn3)CC2)Cc2cc(C3=CCN(S(C)(=O)=O)CC3)ncc2O1` (single isomer, unassigned) [Example 88] displayed an EC50 of 59 nM.

Consider `C[C@@]1(C2CCN(c3ncc(C4CC4)cn3)CC2)Cc2cc(-c3ccc(S(C)(=O)=O)cc3)ncc2O1` (single isomer, unassigned) [Example 89], for which a half-maximal response (EC50) required 16 nM.

The compound `CS(=O)(=O)c1ccc(-c2cc3c(cn2)O[C@H](C2CCN(c4ncc(Cl)cn4)CC2)C3)cc1` (single isomer, unassigned) [Example 90] displayed an EC50 of 60 nM. Compared with the last compound, the EC50 is about 3.8-fold higher.

The compound `CS(=O)(=O)N1CC=C(c2cc3c(cn2)O[C@@H](C2CCN(c4ncc(C5CC5)cn4)CC2)C3)CC1` (single isomer, unassigned) [Example 91] had an EC50 of 3 nM.

Consider `COc1cnc(N2CCC([C@H]3Cc4cc(C5=CCN(S(C)(=O)=O)CC5)ncc4O3)CC2)nc1` (single isomer, unassigned) [Example 92], for which the EC50 came out at 10 nM.

Consider `CS(=O)(=O)c1ccc(-c2cc3c(cn2)O[C@@H](C2CCN(c4ncc(C5CC5)cn4)CC2)C3)cc1` (single isomer, unassigned) [Example 93], for which a half-maximal response (EC50) required 10 nM.

Compound `COc1cnc(N2CCC([C@H]3Cc4cc(-c5ccc(S(C)(=O)=O)cc5)ncc4O3)CC2)nc1` (single isomer, unassigned) [Example 94] showed an EC50 of 18 nM.

`CCc1cnc(N2CCC(C3Cc4cc(-c5ccc(S(C)(=O)=O)cc5)ccc4O3)CC2)nc1` (centres unmarked) [Example 1, 5-Ethyl-2-{4-[5-(4-methanesulfonyl-phenyl)-2,3-dihydro-benzofuran-2-yl]-piperidin-1-yl}-pyrimidine] gave an EC50 of 21 nM.

In the case of `CC(C)c1noc(N2CCC(C3Cc4cc(-c5ccc(S(C)(=O)=O)cc5)ccc4O3)CC2)n1` (centres unmarked) [Example 2, 1-(3-Isopropyl-[1,2,4]oxadiazol-5-yl)-4-[5-(4-methanesulfonyl-phenyl)-2,3-dihydro-benzofuran-2-yl]-piperidine], the EC50 stood at 27 nM.

As for `CS(=O)(=O)c1ccc(-c2ccc3c(c2)CC(C2CCN(c4nc(C5CC5)no4)CC2)O3)cc1` (centres unmarked) [Example 3, 1-(3-Cyclopropyl-[1,2,4]oxadiazol-5-yl)-4-[5-(4-methanesulfonyl-phenyl)-2,3-dihydro-benzofuran-2-yl]-piperidine], the response was half-maximal at 71 nM (EC50).

In turn, `CCCc1noc(N2CCC(C3Cc4cc(-c5ccc(S(C)(=O)=O)cc5)ccc4O3)CC2)n1` (centres unmarked) [Example 4, 4-[5-(4-Methanesulfonyl-phenyl)-2,3-dihydro-benzofuran-2-yl]-1-(3-propyl-[1,2,4]oxadiazol-5-yl)-piperidine] displayed an EC50 of 52 nM. This EC50 and that of the compound before are within 1.5-fold of each other.

With `CCc1cnc(N2CCC(C3Cc4cc(-c5ccc(S(C)(=O)=O)cc5)ncc4O3)CC2)nc1` (centres unmarked) [Example 5, 2-[1-(5-Ethyl-pyrimidin-2-yl)-piperidin-4-yl]-5-(4-methanesulfonyl-phenyl)-2,3-dihydro-furo[2,3-c]pyridine], the EC50 was found to be 12 nM.

With `CC(C)c1noc(N2CCC(C3Cc4cc(-c5ccc(S(C)(=O)=O)cc5)ncc4O3)CC2)n1` (centres unmarked) [Example 6, 2-[1-(3-Isopropyl-[1,2,4]oxadiazol-5-yl)-piperidin-4-yl]-5-(4-methanesulfonyl-phenyl)-2,3-dihydro-furo[2,3-c]pyridine], the EC50 came to 32 nM.

Compound `CCCc1noc(N2CCC(C3Cc4cc(-c5ccc(S(C)(=O)=O)cc5)ncc4O3)CC2)n1` (centres unmarked) [Example 7, 5-(4-Methanesulfonyl-phenyl)-2-[1-(3-propyl-[1,2,4]oxadiazol-5-yl)-piperidin-4-yl]-2,3-dihydro-furo[2,3-c]pyridine] registered an EC50 of 35 nM.

As for `CC(C)c1nc(N2CCC(C3Cc4cc(-c5ccc(S(C)(=O)=O)cc5)ncc4O3)CC2)no1` (centres unmarked) [Example 8, 2-[1-(5-Isopropyl-[1,2,4]oxadiazol-3-yl)-piperidin-4-yl]-5-(4-methanesulfonyl-phenyl)-2,3-dihydro-furo[2,3-c]pyridine], a half-maximal effect (EC50) was put at 11 nM.

`CCCc1nc(N2CCC(C3Cc4cc(-c5ccc(S(C)(=O)=O)cc5)ncc4O3)CC2)no1` (centres unmarked) [Example 9, 5-(4-Methanesulfonyl-phenyl)-2-[1-(5-propyl-[1,2,4]oxadiazol-3-yl)-piperidin-4-yl]-2,3-dihydro-furo[2,3-c]pyridine] registered an EC50 of 12 nM.

On to `Cc1cnc(N2CCC(C3Cc4cc(-c5ccc(S(C)(=O)=O)cc5)ncc4O3)CC2)cn1` (centres unmarked) [Example 10, 5-(4-Methanesulfonyl-phenyl)-2-[1-(5-methyl-pyrazin-2-yl)-piperidin-4-yl]-2,3-dihydro-furo[2,3c]pyridine], for which the EC50 was 152 nM. Compared with the last compound, the EC50 is about 13-fold higher.

Consider `CCc1cnc(N2CCC(C3Cc4cc(-c5ccc(S(C)(=O)=O)cc5)ncc4O3)CC2)cn1` (centres unmarked) [Example 11, 2-[1-(5-Ethyl-pyrazin-2-yl)-piperidin-4-yl]-5-(4-methanesulfonyl-phenyl)-2,3-dihydro-furo[2,3-c]pyridine], for which it took 59 nM to reach a half-maximal effect (EC50).
